Data as given in ChEMBL document CHEMBL5223116, “Combination of NSAIDs with donepezil as multi-target directed ligands for the treatment of Alzheimer's disease” (Bioorg Med Chem Lett, 2022).
Calls of active or inactive are those of the source. The calls are words filed in the database; no cut-off is given here.

Assays:
Acetylcholinesterase [1] = biological target: T1, Acetylcholinesterase (Homo sapiens, UniProt P22303); experiment: Inhibition of AChE (unknown origin) by Ellman's method
Cholinesterase [2] = biological target: T2, Cholinesterase (Homo sapiens, UniProt P06276); experiment: Inhibition of BChE (unknown origin) by Ellman's method
T2 sequence (P06276 whole entry): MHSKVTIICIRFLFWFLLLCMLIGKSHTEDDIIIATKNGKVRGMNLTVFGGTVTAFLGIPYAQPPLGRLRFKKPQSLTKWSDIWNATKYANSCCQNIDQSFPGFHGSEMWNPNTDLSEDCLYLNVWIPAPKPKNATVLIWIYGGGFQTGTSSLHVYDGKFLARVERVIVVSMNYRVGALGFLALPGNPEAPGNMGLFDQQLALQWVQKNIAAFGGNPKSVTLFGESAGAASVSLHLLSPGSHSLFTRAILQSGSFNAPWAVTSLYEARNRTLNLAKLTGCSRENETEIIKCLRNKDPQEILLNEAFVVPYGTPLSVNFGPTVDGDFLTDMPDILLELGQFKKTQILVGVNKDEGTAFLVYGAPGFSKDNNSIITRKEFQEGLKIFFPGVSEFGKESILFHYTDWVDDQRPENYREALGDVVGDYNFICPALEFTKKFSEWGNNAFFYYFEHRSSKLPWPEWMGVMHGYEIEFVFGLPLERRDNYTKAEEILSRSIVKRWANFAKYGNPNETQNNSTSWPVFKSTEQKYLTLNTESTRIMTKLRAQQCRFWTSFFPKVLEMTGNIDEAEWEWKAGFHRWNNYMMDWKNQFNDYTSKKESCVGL

Cholinesterase [3] = biological target: T2, Cholinesterase; experiment: Inhibition of BChE (unknown origin) at 10 uM by Ellman's method
Acetylcholinesterase [4] = biological target: T1, Acetylcholinesterase; experiment: Inhibition of AChE (unknown origin) at 10 uM by Ellman's method
Cholinesterase [5] = biological target: T2, Cholinesterase; experiment: Potency index, ratio of donepezil IC50 to test compound IC50 for BChE (unknown origin)
[6] = Stability of compound in PBS at pH 7.4 measured after 48 hrs by HPLC analysis; type: physicochemical; details: buffer, pH 7.4, 48 h
BV-2 [7] = experiment: Antiinflammatory activity in mouse BV-2 cells assessed as decrease in LPS-induced TNFalpha secretion at 10 uM preincubated for 6 hrs followed by LPS stimulation and measured after 24 hrs by qRT-PCR analysis (reference value: 3.91); type: functional; details: time 30 hrs
BV-2 [8] = experiment: Antiinflammatory activity in mouse BV-2 cells assessed as decrease in LPS-induced TNFalpha secretion at 5 uM preincubated for 6 hrs followed by LPS stimulation and measured after 24 hrs by qRT-PCR analysis (reference value: 3.91); type: functional; details: time 30 hrs
PC-3 [9] = experiment: Neuroprotective activity against Abeta42-induced cell death in […] cells by MTT assay; type: functional, cell-based; details: dose 0.1-10 µM
[10] = biological target: Prostaglandin G/H synthase 1 (Homo sapiens) (UniProt P23219); experiment: Inhibition of COX-1 (unknown origin) by enzyme immunoassay
Sequence of Prostaglandin G/H synthase 1 (Homo sapiens) (P23219 whole entry): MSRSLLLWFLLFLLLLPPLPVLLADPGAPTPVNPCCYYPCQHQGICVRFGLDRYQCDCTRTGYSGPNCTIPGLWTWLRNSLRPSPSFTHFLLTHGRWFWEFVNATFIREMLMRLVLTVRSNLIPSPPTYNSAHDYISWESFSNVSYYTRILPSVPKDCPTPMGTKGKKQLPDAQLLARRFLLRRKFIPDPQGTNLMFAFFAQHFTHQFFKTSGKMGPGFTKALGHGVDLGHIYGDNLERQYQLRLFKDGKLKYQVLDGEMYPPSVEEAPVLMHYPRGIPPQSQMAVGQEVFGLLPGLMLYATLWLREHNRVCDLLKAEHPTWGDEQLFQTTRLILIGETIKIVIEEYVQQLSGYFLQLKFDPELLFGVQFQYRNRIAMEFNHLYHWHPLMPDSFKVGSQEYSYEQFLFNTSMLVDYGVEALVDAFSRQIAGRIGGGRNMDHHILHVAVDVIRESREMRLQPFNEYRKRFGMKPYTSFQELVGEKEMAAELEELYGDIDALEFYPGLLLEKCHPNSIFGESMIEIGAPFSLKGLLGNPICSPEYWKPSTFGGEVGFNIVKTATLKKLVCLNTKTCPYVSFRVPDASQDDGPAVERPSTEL

PC-3 [11] = experiment: Cytotoxicity against […] cells assessed as reduction in cell viability at 0.1 to 10 uM by MTT assay; type: toxicity, cell-based; details: dose 0.1-10 µM
[12] = biological target: T3, Prostaglandin G/H synthase 2 (Homo sapiens) (UniProt P35354); experiment: Inhibition of COX-2 (unknown origin) by enzyme immunoassay
T3 sequence (whole entry): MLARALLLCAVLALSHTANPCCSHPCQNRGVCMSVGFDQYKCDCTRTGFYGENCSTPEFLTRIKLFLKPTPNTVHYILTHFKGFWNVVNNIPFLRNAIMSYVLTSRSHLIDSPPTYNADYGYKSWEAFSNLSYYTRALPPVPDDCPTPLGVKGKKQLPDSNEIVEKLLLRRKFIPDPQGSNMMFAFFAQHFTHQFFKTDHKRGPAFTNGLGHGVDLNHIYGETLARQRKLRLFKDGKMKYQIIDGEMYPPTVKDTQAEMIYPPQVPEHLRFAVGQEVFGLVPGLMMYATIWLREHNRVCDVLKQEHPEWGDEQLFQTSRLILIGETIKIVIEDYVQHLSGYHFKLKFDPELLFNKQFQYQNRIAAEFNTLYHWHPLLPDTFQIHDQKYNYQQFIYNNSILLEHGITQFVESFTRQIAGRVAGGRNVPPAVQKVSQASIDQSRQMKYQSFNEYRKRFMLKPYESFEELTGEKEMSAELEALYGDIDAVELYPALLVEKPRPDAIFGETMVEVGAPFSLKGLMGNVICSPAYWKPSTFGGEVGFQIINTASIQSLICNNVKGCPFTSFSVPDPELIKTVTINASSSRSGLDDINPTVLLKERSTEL

BV-2 [13] = experiment: Antiinflammatory activity in mouse BV-2 cells assessed as decrease in LPS-induced IL-1beta secretion at 5 uM preincubated for 6 hrs followed by LPS stimulation and measured after 24 hrs by qRT-PCR analysis (reference value: 3.76); type: functional; details: time 30 hrs
BV-2 [14] = experiment: Antiinflammatory activity in mouse BV-2 cells assessed as decrease in LPS-induced IL-1beta secretion at 10 uM preincubated for 6 hrs followed by LPS stimulation and measured after 24 hrs by qRT-PCR analysis (reference value: 3.76); type: functional; details: time 30 hrs

T1 sequence (P22303 whole entry): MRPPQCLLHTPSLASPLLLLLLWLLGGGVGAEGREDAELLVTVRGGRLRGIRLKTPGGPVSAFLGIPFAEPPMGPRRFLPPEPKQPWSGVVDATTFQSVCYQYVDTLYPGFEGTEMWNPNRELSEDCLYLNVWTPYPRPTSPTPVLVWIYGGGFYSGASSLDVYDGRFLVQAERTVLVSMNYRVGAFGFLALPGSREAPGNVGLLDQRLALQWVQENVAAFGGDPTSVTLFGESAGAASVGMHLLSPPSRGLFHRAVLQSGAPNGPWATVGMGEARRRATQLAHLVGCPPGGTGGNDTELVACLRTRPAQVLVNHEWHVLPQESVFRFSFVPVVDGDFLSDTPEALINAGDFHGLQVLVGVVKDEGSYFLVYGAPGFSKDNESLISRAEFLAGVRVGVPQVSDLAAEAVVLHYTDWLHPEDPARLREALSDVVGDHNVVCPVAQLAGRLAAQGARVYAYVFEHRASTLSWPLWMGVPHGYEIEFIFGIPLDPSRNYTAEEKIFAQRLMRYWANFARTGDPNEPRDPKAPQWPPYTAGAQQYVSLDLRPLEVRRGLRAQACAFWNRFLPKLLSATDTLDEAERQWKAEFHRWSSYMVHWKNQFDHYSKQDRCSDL

Row | SMILES | IC50 (Acetylcholinesterase [1]) | IC50 (Cholinesterase [2]) | other results
1 | COc1cc2c(cc1OC)/C(=N\NC(=O)CNC(=O)C(C)c1ccc(CC(C)C)cc1)C(CC1CCN(Cc3ccccc3)CC1)C2 (centres undefined) | 1.19 µM | 1.64 µM | 
2 | COc1ccc2c(c1)c(CC(=O)N/N=C1\c3cc(OC)c(OC)cc3CC1CC1CCN(Cc3ccccc3)CC1)c(C)n2C(=O)c1ccc(Cl)cc1 (centres undefined) | 0.51 µM | 8.53 µM | 
3 | COc1ccc2c(c1)c(CC(=O)O)c(C)n2C(=O)c1ccc(Cl)cc1 |  |  | inhibition (Cholinesterase [3]): inactive; inhibition (Acetylcholinesterase [4]): inactive
4 | CC(=O)Oc1ccccc1C(=O)O |  |  | inhibition (Cholinesterase [3]): inactive; inhibition (Acetylcholinesterase [4]): inactive
5 | COc1cc2c(cc1OC)/C(=N\NC(=O)C(NC(=O)C(C)c1ccc(CC(C)C)cc1)C(C)C)C(CC1CCN(Cc3ccccc3)CC1)C2 (centres undefined) | 0.4 µM | 3.23 µM | 
6 | COc1cc2c(cc1OC)/C(=N\NC(=O)C(C)c1ccc(CC(C)C)cc1)C(CC1CCN(Cc3ccccc3)CC1)C2 (centres undefined) | 0.015 µM | 0.8 µM | Ratio IC50 (Cholinesterase [5]): 5; Stability [6]: Stable; Activity (BV-2 [7]): 1.12; Activity (BV-2 [8]): 1.51; Activity (PC-3 [9]): Dose-Dependent Effect; inhibition [10]: Dose-Dependent Effect; Activity (PC-3 [11]): Non-Toxic; inhibition [12]: Dose-Dependent Effect; Activity (BV-2 [13]): 1.19; Activity (BV-2 [14]): 0.78
7 | COc1ccc2cc([C@H](C)C(=O)N/N=C3\c4cc(OC)c(OC)cc4CC3CC3CCN(Cc4ccccc4)CC3)ccc2c1 (some centres undefined) | 0.15 µM | 0.88 µM | 
8 | COc1cc2c(cc1OC)/C(=N\NC(=O)CCNC(=O)C(C)c1ccc(CC(C)C)cc1)C(CC1CCN(Cc3ccccc3)CC1)C2 (centres undefined) | 4.85 µM | 11.6 µM | 
9 | COc1cc2c(cc1OC)/C(=N\NC(=O)c1ccccc1OC(C)=O)C(CC1CCN(Cc3ccccc3)CC1)C2 (centres undefined) | 0.046 µM | 0.8 µM | 
10 | CC(C)Cc1ccc(C(C)C(=O)O)cc1 (centres undefined) |  |  | inhibition (Cholinesterase [3]): inactive; inhibition (Acetylcholinesterase [4]): inactive
11 | COc1cc2c(cc1OC)/C(=N\N)C(CC1CCN(Cc3ccccc3)CC1)C2 (centres undefined) | 0.19 µM | 2.54 µM | 
12 | COc1cc2c(cc1OC)/C(=N\NC(=O)C(CC(C)C)NC(=O)C(C)c1ccc(CC(C)C)cc1)C(CC1CCN(Cc3ccccc3)CC1)C2 (centres undefined) | 0.35 µM | 20.2 µM | 
